Measured values from article PMC6164588 (International Journal of Environmental Research and Public …, 2018).
Read-outs that look alike come from different tables or passages of the source.

Assays:
[1] = tested on: Salmonella typhimurium TA100 strain; conditions: for Mutation effect, TA100 strain: absence of S9
From the text: (§1) TA97, TA98, TA100, and TA102 were used as standard test strains. The strains were provided by Jiangsu Provincial Center for Disease Control and Prevention and Guizhou Medical University. TA97 and TA98 strains primarily detect the genotoxic substances of frameshift mutants, while TA100 and TA102 strains detect DNA as a mutagenic substance for base pair substitution. TA102 strain has a different specificity from the other Salmonella strains routinely used in mutagenicity screening. It detects a variety of oxidative mutagens and seems to be more sensitive to some aldehydes and some DNA damaging compounds, which are negative with other Salmonella strains.
(§2) According to the standard Ames bacterial mutagenicity assay and Safety and Technical Standards for Cosmetics, the experiments were performed by the plate incorporation method with or without liver microsomal metabolic activation (S9) mixture. For the pure materials, the highest dose group was generally 5 mg/plate or 5 μL/plate. After the bacterial inhibition experiment, five dose groups (0.05, 0.5, 5, 50, 500 μg/plate) were determined for testing the chemicals. Three parallel plates were prepared for each dose. The chemicals (test chemicals or positive control drugs), the S9 system (with or without), and the S. typhimurium strains (TA97, TA98, TA100, TA102) were added to the nutrient mediums. The negative control (blank and solvent) groups and the positive control groups were also done with three parallel plates.
(§3) The chemicals and concentrations were as follows: In the absence of the S9 system: Dexon 50 μg/plate for the TA97, TA98, and TA102 strains, and NaN3 1.5 μg/plate for the TA100 strain.
(§4) Five concentrations for each chemical were tested for mutagenicity in the standard plate pre-incubation assay. The reported numbers of reverse mutation colonies per plate are mean values from triplicates obtained in one experiment. The experiment was repeated at two times.
(§5) All the plates for the experiments were incubated under the same conditions: 37 ± 0.5 °C, 48 h, dark.
(§6) The test series was set as 100%, 50%, 10%, 5%, and 0.5%. […] Then, 100 μL of the mixtures, which were at different doses, was added to each plate.
(§7) The mutagenicity ratio (MR) is calculated as MR = x/x0(1) where x is the number of reverse mutation colonies on compound-treated plates and x0 is the number of reverse mutation colonies in the negative control group.
(§8) When the mutagenicity ratio (MR) is ≥2 and the dose–response relationship and the background are normal, the mutagenesis is judged as positive.

[2] = tested on: Salmonella typhimurium TA98 strain; experiment: Ames assay (Salmonella typhimurium/reverse mutation assay), TA98 strain
From the text: as §1, §2, §3, §4, §5, §6, §7, §8

[3] = tested on: S. typhimurium TA102 strain; experiment: Bacterial inhibition experiment, TA102 strain
Method: (§9) Bacterial inhibition experiment is necessary according to the standard Ames bacterial mutagenicity assay. Safety and Technical Standards for Cosmetics require that the maximum chemical dose should be 5 mg/plate. […] The maximum concentration of both were 50 mg/mL, then diluted to 25 mg/mL, 10 mg/mL, 5 mg/mL, and 0.5 mg/mL. Plates were poured with LB medium, and 0.1 mL of the above solution and 0.1 mL of bacterial solution per dish were added.
(§10) The criteria for determining the highest dose of the test substance are its toxicity to the bacteria and its solubility. A decrease in spontaneous reversion variables, a decrease in background bacteria, or a decrease in the number of bacteria in the culture being treated are signs of toxicity.
(§11) For this, bacterial growth inhibition tests were designed and carried out.

[4] = tested on: S. typhimurium TA98 strain; experiment: Bacterial inhibition experiment, TA98 strain
Method: as §9, §10, §11

[5] = tested on: Salmonella typhimurium TA102 strain; experiment: Ames assay (Salmonella typhimurium/reverse mutation assay), TA102 strain
From the text: as §1, §2, §3, §4, §5, §6, §7, §8

[6] = tested on: Salmonella typhimurium TA97 strain; experiment: Ames assay (Salmonella typhimurium/reverse mutation assay), TA97 strain
From the text: as §1, §2, §3, §4, §5, §6, §7, §8

TA98 strain = conditions: concentrations of 300 μg/plate and 500 μg/plate; cited from earlier work
[7] = tested on: S. typhimurium TA97 strain; experiment: Bacterial inhibition experiment, TA97 strain
Method: as §9, §10, §11

TA100 strain = conditions: concentrations of 300 μg/plate and 500 μg/plate; cited from earlier work
[8] = tested on: S. typhimurium TA100 strain; experiment: Bacterial inhibition experiment, TA100 strain
Method: as §9, §10, §11

[9] = dose 50 μg/plate, −S9, positive control

SMILES: O=C(c1ccccc1)c1ccc(O)cc1O [BP-1, benzophenone-1]
- Mutation effect, TA100 strain ([1]; dose 0.5 μg/plate): significant mutation effect
- Mutation effect, TA100 strain ([1]; doses of 5, 50, and 500 μg/plate): no obvious mutations
- Reverse mutation colonies TA100 +S9 ([1]; dose 0.05 μg/plate): 174 ± 13 colonies per plate
- Reverse mutation colonies TA100 −S9 ([1]; dose 0.05 μg/plate, −S9): 239 ± 17 colonies per plate
- Reverse mutation colonies TA100 +S9 ([1]; dose 0.5 μg/plate): 193 ± 12 colonies per plate
- Mutagenicity ratio (MR) flag TA100 −S9 ([1]; dose 0.5 μg/plate, −S9): * (MR ≥ 2 compared to control)
- Reverse mutation colonies TA100 −S9 ([1]; dose 0.5 μg/plate, −S9): 458 ± 29 colonies per plate
- Reverse mutation colonies TA100 +S9 ([1]; dose 5 μg/plate): 191 ± 8 colonies per plate
- Reverse mutation colonies TA100 −S9 ([1]; dose 5 μg/plate, −S9): 153 ± 2 colonies per plate
- Reverse mutation colonies TA100 +S9 ([1]; dose 50 μg/plate): 196 ± 4 colonies per plate
- Reverse mutation colonies TA100 −S9 ([1]; dose 50 μg/plate, −S9): 188 ± 15 colonies per plate
- Reverse mutation colonies TA100 +S9 ([1]; dose 500 μg/plate): 122 ± 4 colonies per plate
- Reverse mutation colonies TA100 −S9 ([1]; dose 500 μg/plate, −S9): 181 ± 10 colonies per plate
- Reverse mutation colonies TA98 +S9 ([2]; dose 0.05 μg/plate): 51 ± 7 colonies per plate
- Reverse mutation colonies TA98 −S9 ([2]; dose 0.05 μg/plate, −S9): 43 ± 13 colonies per plate
- Reverse mutation colonies TA98 +S9 ([2]; dose 0.5 μg/plate): 48 ± 2 colonies per plate
- Reverse mutation colonies TA98 −S9 ([2]; dose 0.5 μg/plate, −S9): 46 ± 8 colonies per plate
- Reverse mutation colonies TA98 +S9 ([2]; dose 5 μg/plate): 52 ± 7 colonies per plate
- Reverse mutation colonies TA98 −S9 ([2]; dose 5 μg/plate, −S9): 33 ± 3 colonies per plate
- Reverse mutation colonies TA98 +S9 ([2]; dose 50 μg/plate): 36 ± 1 colonies per plate
- Reverse mutation colonies TA98 −S9 ([2]; dose 50 μg/plate, −S9): 22 ± 9 colonies per plate
- Reverse mutation colonies TA98 +S9 ([2]; dose 500 μg/plate): 23 ± 2 colonies per plate
- Reverse mutation colonies TA98 −S9 ([2]; dose 500 μg/plate, −S9): 0 ± 1 colonies per plate
- Mutagenicity result, TA98 strain ([2]; systems both with and without S9): not mutagenic
- Bacterial inhibition t-Test Result TA102 ([3]; dose 50 μg/plate): −
- Bacterial inhibition t-Test Result TA102 ([3]; dose 500 μg/plate): + (t-test (p < 0.05))
- Bacterial inhibition t-Test Result TA102 ([3]; dose 1000 μg/plate): + (t-test (p < 0.05))
- Bacterial inhibition t-Test Result TA102 ([3]; dose 2500 μg/plate): ++ (t-test (p < 0.01))
- Bacterial inhibition t-Test Result TA102 ([3]; dose 5000 μg/plate): ++ (t-test (p < 0.01))
- Bacterial inhibition t-Test Result TA98 ([4]; dose 50 μg/plate): −
- Bacterial inhibition t-Test Result TA98 ([4]; dose 500 μg/plate): + (t-test (p < 0.05))
- Bacterial inhibition t-Test Result TA98 ([4]; dose 1000 μg/plate): + (t-test (p < 0.05))
- Bacterial inhibition t-Test Result TA98 ([4]; dose 2500 μg/plate): ++ (t-test (p < 0.01))
- Bacterial inhibition t-Test Result TA98 ([4]; dose 5000 μg/plate): ++ (t-test (p < 0.01))
- Reverse mutation colonies TA102 +S9 ([5]; dose 0.05 μg/plate, +S9): 350 ± 11 colonies per plate
- Reverse mutation colonies TA102 −S9 ([5]; dose 0.05 μg/plate, −S9): 311 ± 12 colonies per plate
- Reverse mutation colonies TA102 +S9 ([5]; dose 0.5 μg/plate, +S9): 369 ± 10 colonies per plate
- Reverse mutation colonies TA102 −S9 ([5]; dose 0.5 μg/plate, −S9): 369 ± 18 colonies per plate
- Reverse mutation colonies TA102 +S9 ([5]; dose 5 μg/plate, +S9): 443 ± 8 colonies per plate
- Reverse mutation colonies TA102 −S9 ([5]; dose 5 μg/plate, −S9): 355 ± 20 colonies per plate
- Reverse mutation colonies TA102 +S9 ([5]; dose 50 μg/plate, +S9): 429 ± 8 colonies per plate
- Reverse mutation colonies TA102 −S9 ([5]; dose 50 μg/plate, −S9): 407 ± 16 colonies per plate
- Reverse mutation colonies TA102 +S9 ([5]; dose 500 μg/plate, +S9): 390 ± 10 colonies per plate
- Reverse mutation colonies TA102 −S9 ([5]; dose 500 μg/plate, −S9): 7 ± 4 colonies per plate
- Mutagenicity, TA102 strain ([5]; presence or absence of S9): not mutagenic
- Mutagenic activities, TA97 strain ([6]; +S9 system, doses from 0.05 μg/plate to 500 μg/plate): no mutagenic activities were detected
- Mutagenicity, TA97 strain ([6]; absence of S9, doses of 0.05 and 0.5 μg/plate): significant mutagenicity
- Reverse mutation colonies TA97 +S9 ([6]; dose 0.05 μg/plate): 151 ± 8 colonies per plate
- Mutagenicity ratio (MR) flag TA97 −S9 ([6]; dose 0.05 μg/plate): * (MR ≥ 2 compared to control)
- Reverse mutation colonies TA97 −S9 ([6]; dose 0.05 μg/plate): 925 ± 13 colonies per plate
- Reverse mutation colonies TA97 +S9 ([6]; dose 0.5 μg/plate): 143 ± 10 colonies per plate
- Mutagenicity ratio (MR) flag TA97 −S9 ([6]; dose 0.5 μg/plate): * (MR ≥ 2 compared to control)
- Reverse mutation colonies TA97 −S9 ([6]; dose 0.5 μg/plate): 697 ± 56 colonies per plate
- Reverse mutation colonies TA97 +S9 ([6]; dose 5 μg/plate): 146 ± 10 colonies per plate
- Reverse mutation colonies TA97 −S9 ([6]; dose 5 μg/plate): 185 ± 10 colonies per plate
- Reverse mutation colonies TA97 +S9 ([6]; dose 50 μg/plate): 149 ± 11 colonies per plate
- Reverse mutation colonies TA97 −S9 ([6]; dose 50 μg/plate): 83 ± 6 colonies per plate
- Reverse mutation colonies TA97 +S9 ([6]; dose 500 μg/plate): 88 ± 20 colonies per plate
- Reverse mutation colonies TA97 −S9 ([6]; dose 500 μg/plate): 6 ± 1 colonies per plate
- Mutagenicity, TA98 strain (TA98 strain): None of the compounds produced clear positive mutagenicity results
- Bacterial inhibition t-Test Result TA97 ([7]; dose 50 μg/plate): −
- Bacterial inhibition t-Test Result TA97 ([7]; dose 500 μg/plate): + (t-test (p < 0.05))
- Bacterial inhibition t-Test Result TA97 ([7]; dose 1000 μg/plate): + (t-test (p < 0.05))
- Bacterial inhibition t-Test Result TA97 ([7]; dose 2500 μg/plate): ++ (t-test (p < 0.01))
- Bacterial inhibition t-Test Result TA97 ([7]; dose 5000 μg/plate): ++ (t-test (p < 0.01))
- Mutagenicity, TA100 strain (TA100 strain): None of the compounds produced clear positive mutagenicity results
- Bacterial inhibition t-Test Result TA100 ([8]; dose 50 μg/plate): −
- Bacterial inhibition t-Test Result TA100 ([8]; dose 1000 μg/plate): + (t-test (p < 0.05))
- Bacterial inhibition t-Test Result TA100 ([8]; dose 2500 μg/plate): ++ (t-test (p < 0.01))
- Bacterial inhibition t-Test Result TA100 ([8]; dose 5000 μg/plate): ++ (t-test (p < 0.01))

SMILES: O=C1c2cccc(O)c2C(=O)c2c(O)cccc21 [Dantron, reference compound]
- Reverse mutation colonies TA102 +S9 ([5]; dose 50 μg/plate, +S9): 625 ± 71 colonies per plate
- Mutagenicity ratio (MR) flag TA102 +S9 ([5]; dose 50 μg/plate, +S9, positive control): * (MR ≥ 2 compared to control)

SMILES: CN(C)c1ccc(N=NS(=O)(=O)[O-])cc1.[Na+] [Dexon, reference compound]
- Reverse mutation colonies TA98 −S9 ([2]; dose 50 μg/plate, −S9): 1065 ± 137 colonies per plate
- Mutagenicity ratio (MR) flag TA98 −S9 [2, 9]: * (MR ≥ 2 compared to control)
- Reverse mutation colonies TA102 −S9 ([5]; dose 50 μg/plate, −S9): 586 ± 83 colonies per plate
- Mutagenicity ratio (MR) flag TA102 −S9 [5, 9]: * (MR ≥ 2 compared to control)
- Reverse mutation colonies TA97 −S9 ([6]; dose 50 μg/plate): 1987 ± 203 colonies per plate
- Mutagenicity ratio (MR) flag TA97 −S9 ([6]; dose 50 μg/plate, positive control): * (MR ≥ 2 compared to control)
